Experiments:
[1] = molecular target: CYP2C9 (Homo sapiens, UniProt P11712); assay: Inhibition of CYP2C9 (unknown origin) at 10 uM relative to control; format: ADME
[2] = molecular target: Calcium/calmodulin-dependent protein kinase kinase 1 (Homo sapiens) (UniProt Q8N5S9); assay: Inhibition of human CAMKK1 assessed as residual activity at 1 uM using RB-CTF as substrate in presence of 33P-ATP by ProQinase assay relative to control
[3] = system: Epidermal growth factor receptor (Homo sapiens), P00533 [T790M]; assay: Inhibition of human EGFR T790M mutant assessed as residual activity at 1 uM using PolyEY as substrate in presence of 33P-ATP by ProQinase assay relative to control
[4] = molecular target: Mitogen-activated protein kinase kinase kinase 8 (Homo sapiens) (UniProt P41279); assay: Inhibition of human COT assessed as residual activity at 1 uM using RBER-CHKtide as substrate in presence of 33P-ATP by ProQinase assay relative to control
[5] = molecular target: Death-associated protein kinase 2 (Homo sapiens) (UniProt Q9UIK4); assay: Inhibition of human DAPK2 assessed as residual activity at 1 uM using RB-S6P as substrate in presence of 33P-ATP by ProQinase assay relative to control
[6] = Anti-inflammatory activity against human derived medium respond PBMC cells assessed as inhibition in stimulated IL-17A cytokine release incubated for 2 hrs in the presence of LPS/SEB/aCD28 by Luminex based sandwich immunoassay; format: functional, cell-based
[7] = molecular target: Mitogen-activated protein kinase kinase kinase 3 (Homo sapiens) (UniProt Q99759); assay: Inhibition of human MEKK3 assessed as residual activity at 1 uM using casein as substrate in presence of 33P-ATP by ProQinase assay relative to control
Mitogen-activated protein kinase kinase kinase 3 (Homo sapiens), sequence (Q99759 whole entry, the tested form may be a part): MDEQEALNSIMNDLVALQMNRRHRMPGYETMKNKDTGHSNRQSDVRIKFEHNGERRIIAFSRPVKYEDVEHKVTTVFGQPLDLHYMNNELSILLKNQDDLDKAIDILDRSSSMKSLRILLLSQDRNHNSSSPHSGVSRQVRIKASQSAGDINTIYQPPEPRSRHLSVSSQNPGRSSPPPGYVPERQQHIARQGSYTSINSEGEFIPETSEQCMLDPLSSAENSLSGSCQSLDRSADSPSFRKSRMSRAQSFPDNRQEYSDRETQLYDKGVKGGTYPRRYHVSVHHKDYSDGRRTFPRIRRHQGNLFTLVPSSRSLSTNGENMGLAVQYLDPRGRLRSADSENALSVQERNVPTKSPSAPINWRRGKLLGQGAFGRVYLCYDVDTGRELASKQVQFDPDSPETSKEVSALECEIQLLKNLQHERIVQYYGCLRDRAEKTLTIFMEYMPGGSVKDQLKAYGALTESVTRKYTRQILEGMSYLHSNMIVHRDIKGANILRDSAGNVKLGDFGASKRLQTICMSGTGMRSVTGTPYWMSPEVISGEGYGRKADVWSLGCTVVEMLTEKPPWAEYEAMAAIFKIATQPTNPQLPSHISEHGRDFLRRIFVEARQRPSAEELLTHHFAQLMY

[8] = molecular target: Ribosomal protein S6 kinase alpha-1 (Homo sapiens) (UniProt Q15418); assay: Inhibition of C-terminal kinase domain RPS6KA1 (unknown origin) assessed as remaining activity at 1 uM by Kinome scan method relative to control
Ribosomal protein S6 kinase alpha-1 (Homo sapiens), sequence (Q15418 whole entry, the tested form may be a part): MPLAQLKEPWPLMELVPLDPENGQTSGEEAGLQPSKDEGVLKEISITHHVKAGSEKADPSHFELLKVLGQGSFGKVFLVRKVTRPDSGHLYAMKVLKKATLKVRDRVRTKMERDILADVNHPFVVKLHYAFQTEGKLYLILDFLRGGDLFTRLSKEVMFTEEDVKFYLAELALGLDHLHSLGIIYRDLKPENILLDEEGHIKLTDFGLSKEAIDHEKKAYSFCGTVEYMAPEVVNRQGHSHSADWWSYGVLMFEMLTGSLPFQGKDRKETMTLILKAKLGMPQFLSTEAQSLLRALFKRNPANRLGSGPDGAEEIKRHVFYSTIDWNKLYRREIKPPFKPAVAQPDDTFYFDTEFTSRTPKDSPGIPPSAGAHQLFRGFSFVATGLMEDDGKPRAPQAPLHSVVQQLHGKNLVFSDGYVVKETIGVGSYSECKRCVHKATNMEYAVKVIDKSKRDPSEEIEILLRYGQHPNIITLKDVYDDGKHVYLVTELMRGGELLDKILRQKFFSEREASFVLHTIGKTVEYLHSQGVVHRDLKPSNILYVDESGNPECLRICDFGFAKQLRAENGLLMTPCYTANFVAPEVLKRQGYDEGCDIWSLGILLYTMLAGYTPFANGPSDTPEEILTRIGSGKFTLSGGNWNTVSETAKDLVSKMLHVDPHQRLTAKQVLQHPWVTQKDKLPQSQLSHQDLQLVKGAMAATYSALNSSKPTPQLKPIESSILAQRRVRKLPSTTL

[9] = molecular target: CDK3/Cyclin E (Homo sapiens) (UniProt P24864+Q00526); assay: Inhibition of human CDK3/CyclinE1 assessed as residual activity at 1 uM using RBER-CHKtide as substrate in presence of 33P-ATP by ProQinase assay relative to control; format: protein-complex assay
[10] = molecular target: Activin receptor type-1B (Homo sapiens) (UniProt P36896); assay: Inhibition of human ACVR1B assessed as residual activity at 1 uM using RBER-CHKtide as substrate in presence of 33P-ATP by ProQinase assay relative to control
[11] = molecular target: Serine/threonine-protein kinase PAK 1 (Homo sapiens) (UniProt Q13153); assay: Inhibition of PAK1 (unknown origin) assessed as remaining activity at 1 uM by Kinome scan method relative to control
[12] = molecular target: Epidermal growth factor receptor (Homo sapiens) (UniProt P00533); assay: Inhibition of EGFR (unknown origin) assessed as remaining activity at 1 uM by Kinome scan method relative to control
[13] = molecular target: Dual specificity tyrosine-phosphorylation-regulated kinase 1B (Homo sapiens) (UniProt Q9Y463); assay: Inhibition of DYRK1B (unknown origin) assessed as remaining activity at 1 uM by Kinome scan method relative to control
Dual specificity tyrosine-phosphorylation-regulated kinase 1B (Homo sapiens), sequence (Q9Y463 whole entry, looked up): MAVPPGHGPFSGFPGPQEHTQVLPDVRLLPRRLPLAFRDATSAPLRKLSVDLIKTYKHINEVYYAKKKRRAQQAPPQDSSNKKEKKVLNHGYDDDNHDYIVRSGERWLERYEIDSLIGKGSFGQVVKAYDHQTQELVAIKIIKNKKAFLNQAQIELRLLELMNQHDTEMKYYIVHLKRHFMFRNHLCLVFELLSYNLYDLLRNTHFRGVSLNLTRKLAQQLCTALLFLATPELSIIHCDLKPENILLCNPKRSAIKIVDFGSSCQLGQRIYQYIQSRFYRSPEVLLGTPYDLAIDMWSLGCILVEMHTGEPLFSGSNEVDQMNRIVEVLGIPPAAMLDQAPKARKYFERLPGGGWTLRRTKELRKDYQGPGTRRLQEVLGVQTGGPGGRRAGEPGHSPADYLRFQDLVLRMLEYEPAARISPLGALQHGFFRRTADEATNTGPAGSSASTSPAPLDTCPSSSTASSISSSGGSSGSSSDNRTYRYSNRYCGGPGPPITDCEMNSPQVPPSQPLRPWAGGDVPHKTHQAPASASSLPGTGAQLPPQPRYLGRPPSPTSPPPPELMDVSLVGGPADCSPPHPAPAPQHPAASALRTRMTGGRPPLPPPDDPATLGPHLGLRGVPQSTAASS

[14] = molecular target: NUAK family SNF1-like kinase 1 (Homo sapiens) (UniProt O60285); assay: Inhibition of ARK5 (unknown origin) assessed as remaining activity at 1 uM by Kinome scan method relative to control
[15] = molecular target: Serine/threonine-protein kinase 33 (Homo sapiens) (UniProt Q9BYT3); assay: Inhibition of human STK33 assessed as residual activity at 1 uM using RBER-CHKtide as substrate in presence of 33P-ATP by ProQinase assay relative to control
[16] = molecular target: Tyrosine-protein kinase Fer (Homo sapiens) (UniProt P16591); assay: Inhibition of human FER assessed as residual activity at 1 uM using polyEY as substrate in presence of 33P-ATP by ProQinase assay relative to control
[17] = molecular target: Mitogen-activated protein kinase 14 (Homo sapiens) (UniProt Q16539); assay: Inhibition of human p38alpha assessed as residual activity at 1 uM using ATF2 as substrate in presence of 33P-ATP by ProQinase assay relative to control
[18] = molecular target: T1, TGF-beta receptor type-1 (Homo sapiens) (UniProt P36897); assay: Inhibition of human TGFBR1 assessed as residual activity at 1 uM using RBER-GSK3(14-27) as substrate in presence of 33P-ATP by ProQinase assay relative to control
T1 sequence (whole entry): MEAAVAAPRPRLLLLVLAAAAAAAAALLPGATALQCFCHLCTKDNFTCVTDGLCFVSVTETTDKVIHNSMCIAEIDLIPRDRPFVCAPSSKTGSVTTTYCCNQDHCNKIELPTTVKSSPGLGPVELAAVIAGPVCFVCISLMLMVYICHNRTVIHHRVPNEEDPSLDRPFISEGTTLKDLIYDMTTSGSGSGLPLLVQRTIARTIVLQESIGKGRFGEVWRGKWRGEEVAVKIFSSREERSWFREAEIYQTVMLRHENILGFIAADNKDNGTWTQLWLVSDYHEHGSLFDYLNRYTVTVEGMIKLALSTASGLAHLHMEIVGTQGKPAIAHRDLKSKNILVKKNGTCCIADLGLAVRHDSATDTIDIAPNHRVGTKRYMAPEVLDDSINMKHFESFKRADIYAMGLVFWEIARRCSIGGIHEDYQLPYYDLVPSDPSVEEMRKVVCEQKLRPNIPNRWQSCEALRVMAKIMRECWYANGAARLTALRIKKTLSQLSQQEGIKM

[19] = molecular target: SRSF protein kinase 2 (Homo sapiens) (UniProt P78362); assay: Inhibition of human SRPK2 assessed as residual activity at 1 uM using MBP as substrate in presence of 33P-ATP by ProQinase assay relative to control
[20] = molecular target: Non-receptor tyrosine-protein kinase TYK2 (Homo sapiens) (UniProt P29597); assay: Inhibition of human TYK2 assessed as residual activity at 1 uM using poly(Ala,Glu,Lys,Tyr)6:2:5:1 as substrate in presence of 33P-ATP by ProQinase assay relative to control
Non-receptor tyrosine-protein kinase TYK2 (Homo sapiens), sequence (P29597 whole entry): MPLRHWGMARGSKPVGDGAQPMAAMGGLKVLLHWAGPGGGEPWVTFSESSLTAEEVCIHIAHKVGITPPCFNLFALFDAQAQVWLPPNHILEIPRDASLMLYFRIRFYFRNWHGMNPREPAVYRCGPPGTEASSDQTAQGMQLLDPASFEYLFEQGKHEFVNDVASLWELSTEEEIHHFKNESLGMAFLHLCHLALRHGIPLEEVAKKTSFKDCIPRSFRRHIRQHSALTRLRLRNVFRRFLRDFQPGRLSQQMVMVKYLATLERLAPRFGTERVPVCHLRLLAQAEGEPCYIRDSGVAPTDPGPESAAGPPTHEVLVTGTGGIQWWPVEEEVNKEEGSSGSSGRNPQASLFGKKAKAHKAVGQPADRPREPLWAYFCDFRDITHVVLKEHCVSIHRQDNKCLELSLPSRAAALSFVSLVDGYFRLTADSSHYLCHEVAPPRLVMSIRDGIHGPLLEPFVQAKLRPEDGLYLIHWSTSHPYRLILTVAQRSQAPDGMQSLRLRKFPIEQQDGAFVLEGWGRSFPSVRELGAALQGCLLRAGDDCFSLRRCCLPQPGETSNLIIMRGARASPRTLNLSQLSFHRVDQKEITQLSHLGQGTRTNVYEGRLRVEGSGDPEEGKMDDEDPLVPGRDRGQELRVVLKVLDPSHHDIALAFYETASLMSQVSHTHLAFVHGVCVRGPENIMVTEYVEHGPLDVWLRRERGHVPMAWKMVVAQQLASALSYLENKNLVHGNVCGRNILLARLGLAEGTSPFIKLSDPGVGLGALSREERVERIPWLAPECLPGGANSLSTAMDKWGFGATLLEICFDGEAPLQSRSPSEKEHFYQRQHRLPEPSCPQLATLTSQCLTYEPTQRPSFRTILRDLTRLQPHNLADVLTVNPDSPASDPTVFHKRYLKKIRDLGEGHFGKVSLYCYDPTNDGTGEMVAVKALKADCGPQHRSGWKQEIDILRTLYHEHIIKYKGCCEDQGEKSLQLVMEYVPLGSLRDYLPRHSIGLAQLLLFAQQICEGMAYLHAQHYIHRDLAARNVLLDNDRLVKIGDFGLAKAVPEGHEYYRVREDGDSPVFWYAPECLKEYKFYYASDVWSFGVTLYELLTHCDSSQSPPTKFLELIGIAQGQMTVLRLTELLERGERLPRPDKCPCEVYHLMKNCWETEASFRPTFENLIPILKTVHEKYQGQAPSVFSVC

[21] = molecular target: Protein kinase C eta type (Homo sapiens) (UniProt P24723); assay: Inhibition of human PKCeta assessed as residual activity at 1 uM using histon H2B as substrate in presence of 33P-ATP by ProQinase assay relative to control
Protein kinase C eta type (Homo sapiens), sequence (P24723 whole entry): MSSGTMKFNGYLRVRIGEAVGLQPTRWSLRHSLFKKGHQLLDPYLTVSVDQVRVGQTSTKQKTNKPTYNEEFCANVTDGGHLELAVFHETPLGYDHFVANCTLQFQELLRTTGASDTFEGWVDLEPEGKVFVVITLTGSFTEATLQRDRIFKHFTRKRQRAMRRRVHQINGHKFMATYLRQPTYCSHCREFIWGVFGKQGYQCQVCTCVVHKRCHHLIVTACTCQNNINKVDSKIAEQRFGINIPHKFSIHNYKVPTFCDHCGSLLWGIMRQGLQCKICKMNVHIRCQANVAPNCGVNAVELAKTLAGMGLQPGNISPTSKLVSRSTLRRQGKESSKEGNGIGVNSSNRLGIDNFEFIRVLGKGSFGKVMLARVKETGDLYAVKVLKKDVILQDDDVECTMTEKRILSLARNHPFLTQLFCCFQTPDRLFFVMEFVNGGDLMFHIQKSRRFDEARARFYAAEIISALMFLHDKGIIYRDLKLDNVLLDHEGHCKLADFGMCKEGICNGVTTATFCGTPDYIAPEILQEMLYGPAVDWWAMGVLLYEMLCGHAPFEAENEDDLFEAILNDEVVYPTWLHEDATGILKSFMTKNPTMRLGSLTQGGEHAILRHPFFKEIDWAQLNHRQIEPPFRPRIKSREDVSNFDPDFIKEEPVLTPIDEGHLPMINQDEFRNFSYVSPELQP

[22] = molecular target: Macrophage colony-stimulating factor 1 receptor (Homo sapiens) (UniProt P07333); assay: Inhibition of CSF1R (unknown origin) assessed as remaining activity at 1 uM by Kinome scan method relative to control
[23] = molecular target: CYP2C19 (Homo sapiens, UniProt P33261); assay: Inhibition of CYP2C19 (unknown origin) at 10 uM relative to control; format: ADME
CYP2C19, sequence (P33261 whole entry): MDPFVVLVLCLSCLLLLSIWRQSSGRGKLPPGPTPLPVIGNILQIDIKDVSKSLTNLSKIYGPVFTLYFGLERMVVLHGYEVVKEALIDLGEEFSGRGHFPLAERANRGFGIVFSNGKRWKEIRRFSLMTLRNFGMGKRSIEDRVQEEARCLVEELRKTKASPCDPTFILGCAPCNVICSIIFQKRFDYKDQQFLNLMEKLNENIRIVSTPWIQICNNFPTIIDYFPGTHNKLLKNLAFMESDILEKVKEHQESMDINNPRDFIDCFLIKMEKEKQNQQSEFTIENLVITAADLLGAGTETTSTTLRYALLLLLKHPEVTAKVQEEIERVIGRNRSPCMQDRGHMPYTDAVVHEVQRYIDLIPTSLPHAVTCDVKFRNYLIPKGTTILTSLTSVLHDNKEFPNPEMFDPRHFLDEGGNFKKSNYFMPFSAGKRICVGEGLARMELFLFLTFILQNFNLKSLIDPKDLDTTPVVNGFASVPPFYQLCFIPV

[24] = molecular target: Receptor-interacting serine/threonine-protein kinase 2 (Homo sapiens) (UniProt O43353); assay: Inhibition of RIPK2 (unknown origin) assessed as remaining activity at 1 uM by Kinome scan method relative to control

CYP2C9, sequence (P11712 whole entry): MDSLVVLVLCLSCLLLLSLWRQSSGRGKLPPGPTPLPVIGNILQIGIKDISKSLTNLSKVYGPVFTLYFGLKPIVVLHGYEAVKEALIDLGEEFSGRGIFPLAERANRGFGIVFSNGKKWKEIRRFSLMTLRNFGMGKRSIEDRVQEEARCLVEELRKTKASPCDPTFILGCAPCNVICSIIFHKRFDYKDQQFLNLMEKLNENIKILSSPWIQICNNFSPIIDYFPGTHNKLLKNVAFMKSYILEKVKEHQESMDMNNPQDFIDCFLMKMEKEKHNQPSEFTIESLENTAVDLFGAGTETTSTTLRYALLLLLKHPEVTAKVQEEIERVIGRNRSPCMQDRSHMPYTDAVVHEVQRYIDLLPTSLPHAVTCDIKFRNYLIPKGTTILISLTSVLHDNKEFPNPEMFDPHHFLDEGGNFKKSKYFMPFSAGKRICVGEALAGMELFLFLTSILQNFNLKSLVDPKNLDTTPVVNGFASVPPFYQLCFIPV

Which results are given for `O=C1c2ccc(Nc3ccc(F)cc3F)cc2CCc2ccc(OC[C@H](O)CO)cc21` [Skepinone-L]?
inhibition at 10 µM [1]: 65%; Activity [2]: 83%; Activity [3]: 119%; Activity [4]: 91%; Activity [5]: 88%; IC50 [6]: 7.85 µM; Activity [7]: 96%; Activity [8]: 94%; Activity [9]: 96%; Activity [10]: 77%; Activity [11]: 100%; Activity [12]: 98%; Activity [13]: 82%; Activity [14]: 100%; Activity [15]: 94%; Activity [16]: 101%; Activity [17]: 0%; Activity [18]: 93%; Activity [19]: 101%; Activity [20]: 96%; Activity [21]: 97%; Activity [22]: 92%; inhibition at 10 µM [23]: 42%; Activity [24]: 87%
